Results as given in US9580428B2, “Compositions and methods for inhibiting viral polymerase” (priority 2012, dated 2017).

Test system: A/NJ/15/2007 (H1N1 - H274Y)
Type: cell-based, influenza A virus

Cl.Cl.Nc1ncnc2c([C@@H]3N[C@H](CO)[C@@H](O)[C@H]3O)c[nH]c12 [compound 12i, (2S,3S,4R,5R)-2-(4-amino-5H-pyrrolo[3,2-d]pyrimidin-7-yl)-5-(hydroxymethyl)pyrrolidine-3,4-diol dihydrochloride]
EC50: 1.39 µg/mL
